Test results taken from publication PMC8550792, “Evolution of kinase polypharmacology across HSP90 drug discovery” (Cell Chemical Biology, 2021).

Legend:
Assay in all cases: biochemical
Format in all cases: biochemical
[1] = target: T1, 382 unique human kinases (Homo sapiens, UniProt P07949, L790F); conditions: RET (L790F), 10 uM; for remaining activity at 10 µM: read-out: % Enzyme Activity (relative to DMSO controls)
T1 construct: purchased Reaction Biology (HotSpot contract assay)

[2] = target: T2, 382 unique human kinases (Homo sapiens, UniProt P08581, F1200I); conditions: kinase c-MET (F1200I), compound 10 uM; for remaining activity at 10 µM: read-out: % Enzyme Activity (relative to DMSO controls)
T2 construct: purchased Reaction Biology (HotSpot contract assay)

[3] = target: T3, 382 unique human kinases (Homo sapiens, UniProt Q02750); conditions: kinase MEK1, compound 10 uM; for remaining activity at 10 µM: read-out: % Enzyme Activity (relative to DMSO controls)
T3 construct: purchased Reaction Biology (HotSpot contract assay)
T3 sequence (Q02750 whole entry): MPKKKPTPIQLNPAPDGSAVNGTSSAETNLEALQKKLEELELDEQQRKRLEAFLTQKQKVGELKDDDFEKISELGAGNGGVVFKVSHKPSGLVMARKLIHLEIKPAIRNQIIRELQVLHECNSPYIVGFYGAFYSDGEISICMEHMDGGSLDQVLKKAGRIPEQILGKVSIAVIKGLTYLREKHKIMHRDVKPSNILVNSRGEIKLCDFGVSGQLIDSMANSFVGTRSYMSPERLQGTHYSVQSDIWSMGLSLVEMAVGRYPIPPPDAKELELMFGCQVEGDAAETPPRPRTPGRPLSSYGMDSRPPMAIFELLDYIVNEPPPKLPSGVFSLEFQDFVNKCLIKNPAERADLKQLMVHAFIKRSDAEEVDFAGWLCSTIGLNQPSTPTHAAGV

[4] = target: T4, 382 unique human kinases (Homo sapiens, UniProt Q9NRM7); conditions: LATS2, 10 uM; for remaining activity at 10 µM: read-out: % Enzyme Activity (relative to DMSO controls)
T4 construct: purchased Reaction Biology (HotSpot contract assay)
T4 sequence (Q9NRM7 1-1088): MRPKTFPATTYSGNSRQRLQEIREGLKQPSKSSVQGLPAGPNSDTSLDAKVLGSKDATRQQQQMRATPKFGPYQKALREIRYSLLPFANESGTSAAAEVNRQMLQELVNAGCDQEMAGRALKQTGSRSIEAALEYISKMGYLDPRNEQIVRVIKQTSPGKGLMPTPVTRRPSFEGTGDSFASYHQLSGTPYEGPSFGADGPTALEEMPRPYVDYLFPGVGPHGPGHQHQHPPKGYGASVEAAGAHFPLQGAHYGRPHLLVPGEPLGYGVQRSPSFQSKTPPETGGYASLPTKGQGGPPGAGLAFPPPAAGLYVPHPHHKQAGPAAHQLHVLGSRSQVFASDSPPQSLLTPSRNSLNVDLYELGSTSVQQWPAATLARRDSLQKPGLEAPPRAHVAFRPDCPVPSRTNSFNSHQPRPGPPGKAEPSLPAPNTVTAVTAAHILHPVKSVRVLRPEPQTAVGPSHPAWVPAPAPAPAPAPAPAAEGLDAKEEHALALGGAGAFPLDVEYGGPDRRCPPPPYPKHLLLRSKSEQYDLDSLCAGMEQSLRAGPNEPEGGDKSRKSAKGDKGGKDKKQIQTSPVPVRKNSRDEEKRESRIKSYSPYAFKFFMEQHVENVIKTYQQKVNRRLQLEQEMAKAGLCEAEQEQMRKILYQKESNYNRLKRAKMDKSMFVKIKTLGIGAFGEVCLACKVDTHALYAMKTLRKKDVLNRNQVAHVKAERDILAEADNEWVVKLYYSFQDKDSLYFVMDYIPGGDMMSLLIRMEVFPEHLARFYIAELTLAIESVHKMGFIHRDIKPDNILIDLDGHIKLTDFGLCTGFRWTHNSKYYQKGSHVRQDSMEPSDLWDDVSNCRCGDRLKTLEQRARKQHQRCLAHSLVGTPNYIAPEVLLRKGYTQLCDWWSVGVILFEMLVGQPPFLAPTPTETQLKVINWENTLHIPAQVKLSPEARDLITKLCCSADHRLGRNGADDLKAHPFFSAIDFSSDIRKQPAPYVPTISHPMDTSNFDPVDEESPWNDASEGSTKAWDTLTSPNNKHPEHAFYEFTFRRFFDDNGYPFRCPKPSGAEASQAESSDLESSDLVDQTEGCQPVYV

[5] = target: T5, 382 unique human kinases (Homo sapiens, UniProt Q9UM73, R1275Q); conditions: ALK (R1275Q), 10 uM; for remaining activity at 10 µM: read-out: % Enzyme Activity (relative to DMSO controls)
T5 construct: purchased Reaction Biology (HotSpot contract assay)
T5 sequence (Q9UM73 19-1620 R1275Q): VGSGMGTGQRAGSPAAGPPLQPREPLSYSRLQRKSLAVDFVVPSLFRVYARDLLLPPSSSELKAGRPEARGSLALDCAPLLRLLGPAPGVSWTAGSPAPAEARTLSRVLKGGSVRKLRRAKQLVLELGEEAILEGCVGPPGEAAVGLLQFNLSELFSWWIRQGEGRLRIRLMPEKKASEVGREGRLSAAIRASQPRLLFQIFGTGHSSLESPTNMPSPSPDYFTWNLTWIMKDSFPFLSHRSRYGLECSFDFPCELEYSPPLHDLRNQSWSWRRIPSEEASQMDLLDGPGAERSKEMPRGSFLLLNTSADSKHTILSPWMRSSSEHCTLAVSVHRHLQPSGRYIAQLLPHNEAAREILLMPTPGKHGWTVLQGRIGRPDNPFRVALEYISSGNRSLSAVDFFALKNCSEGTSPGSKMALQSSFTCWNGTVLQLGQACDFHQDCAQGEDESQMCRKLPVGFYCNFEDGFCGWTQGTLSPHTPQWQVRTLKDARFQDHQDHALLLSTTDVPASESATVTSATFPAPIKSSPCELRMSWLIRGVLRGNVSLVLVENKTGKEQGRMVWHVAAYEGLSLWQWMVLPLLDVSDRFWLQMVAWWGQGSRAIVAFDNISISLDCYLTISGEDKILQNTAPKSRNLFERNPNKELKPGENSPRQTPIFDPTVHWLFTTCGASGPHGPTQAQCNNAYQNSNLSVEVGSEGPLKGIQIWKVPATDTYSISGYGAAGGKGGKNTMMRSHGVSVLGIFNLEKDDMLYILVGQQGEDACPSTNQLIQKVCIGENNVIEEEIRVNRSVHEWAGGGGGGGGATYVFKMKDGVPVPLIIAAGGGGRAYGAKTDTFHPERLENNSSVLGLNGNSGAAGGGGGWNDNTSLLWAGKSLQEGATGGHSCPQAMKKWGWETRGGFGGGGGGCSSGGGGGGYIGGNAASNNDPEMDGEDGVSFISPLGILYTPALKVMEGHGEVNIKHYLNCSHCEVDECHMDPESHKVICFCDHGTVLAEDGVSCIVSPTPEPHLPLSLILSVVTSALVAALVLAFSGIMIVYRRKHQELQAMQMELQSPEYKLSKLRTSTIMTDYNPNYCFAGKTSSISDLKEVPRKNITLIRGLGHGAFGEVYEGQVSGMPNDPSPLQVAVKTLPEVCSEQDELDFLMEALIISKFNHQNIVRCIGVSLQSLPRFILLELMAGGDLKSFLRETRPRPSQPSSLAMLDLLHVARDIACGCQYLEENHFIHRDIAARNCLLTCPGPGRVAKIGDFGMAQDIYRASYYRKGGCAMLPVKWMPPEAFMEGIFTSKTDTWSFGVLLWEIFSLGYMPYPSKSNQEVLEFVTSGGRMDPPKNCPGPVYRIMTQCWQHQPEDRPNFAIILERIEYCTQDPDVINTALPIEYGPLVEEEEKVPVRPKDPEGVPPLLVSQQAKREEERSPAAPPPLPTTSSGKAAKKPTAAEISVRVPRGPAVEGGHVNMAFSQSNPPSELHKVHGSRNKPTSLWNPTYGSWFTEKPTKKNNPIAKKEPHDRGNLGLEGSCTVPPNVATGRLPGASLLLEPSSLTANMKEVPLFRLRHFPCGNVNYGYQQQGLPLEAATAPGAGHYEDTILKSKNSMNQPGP

[6] = target: T6, 382 unique human kinases (Homo sapiens, UniProt P00519); conditions: ABL1, [ATP] 40 µM
T6 construct: purchased Reaction Biology (HotSpot contract assay)

[7] = target: T7, 382 unique human kinases (Homo sapiens, UniProt P00519, G250E); conditions: ABL1 (G250E), [ATP] 10 µM, compound 10 uM; for remaining activity at 10 µM: read-out: % Enzyme Activity (relative to DMSO controls)
T7 construct: purchased Reaction Biology (HotSpot contract assay)

[8] = target: T8, 382 unique human kinases (Homo sapiens, UniProt P00533, G719S); conditions: EGFR (G719S), 10 uM; for remaining activity at 10 µM: read-out: % Enzyme Activity (relative to DMSO controls)
T8 construct: purchased Reaction Biology (HotSpot contract assay)

[9] = target: T9, 382 unique human kinases (Homo sapiens, UniProt P21709); conditions: EPHA1, [ATP] 20 µM, compound 10 uM; for remaining activity at 10 µM: read-out: % Enzyme Activity (relative to DMSO controls)
T9 construct: purchased Reaction Biology (HotSpot contract assay)
T9 sequence (P21709 26-976): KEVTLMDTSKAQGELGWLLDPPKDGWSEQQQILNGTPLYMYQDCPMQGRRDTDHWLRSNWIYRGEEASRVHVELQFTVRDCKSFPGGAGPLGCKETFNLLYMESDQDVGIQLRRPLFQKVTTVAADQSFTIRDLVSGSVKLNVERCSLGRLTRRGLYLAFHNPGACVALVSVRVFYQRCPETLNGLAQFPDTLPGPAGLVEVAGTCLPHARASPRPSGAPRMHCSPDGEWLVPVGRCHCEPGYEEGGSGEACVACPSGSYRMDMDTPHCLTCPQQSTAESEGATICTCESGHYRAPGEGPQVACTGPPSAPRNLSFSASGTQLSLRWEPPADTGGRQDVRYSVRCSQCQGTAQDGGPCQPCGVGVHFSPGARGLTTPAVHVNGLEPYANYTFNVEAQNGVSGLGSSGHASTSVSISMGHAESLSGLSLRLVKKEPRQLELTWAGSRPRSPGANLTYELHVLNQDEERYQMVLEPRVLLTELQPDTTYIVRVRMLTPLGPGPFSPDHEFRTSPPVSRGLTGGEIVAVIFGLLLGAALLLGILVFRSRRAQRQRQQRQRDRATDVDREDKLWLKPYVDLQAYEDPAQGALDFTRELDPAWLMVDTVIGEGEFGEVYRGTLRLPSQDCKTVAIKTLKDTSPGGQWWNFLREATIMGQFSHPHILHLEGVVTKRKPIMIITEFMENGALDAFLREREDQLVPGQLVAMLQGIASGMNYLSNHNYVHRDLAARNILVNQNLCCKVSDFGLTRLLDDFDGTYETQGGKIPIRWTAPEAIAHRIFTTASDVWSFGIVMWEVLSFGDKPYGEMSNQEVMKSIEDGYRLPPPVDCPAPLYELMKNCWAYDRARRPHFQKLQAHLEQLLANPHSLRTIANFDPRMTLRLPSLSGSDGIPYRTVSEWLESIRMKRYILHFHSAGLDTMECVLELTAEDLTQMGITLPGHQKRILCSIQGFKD

[10] = target: T10, 382 unique human kinases (Homo sapiens, UniProt P41279); conditions: COT1/MAP3K8, 10 uM; for remaining activity at 10 µM: read-out: % Enzyme Activity (relative to DMSO controls)
T10 construct: purchased Reaction Biology (HotSpot contract assay)
T10 sequence (P41279 whole entry): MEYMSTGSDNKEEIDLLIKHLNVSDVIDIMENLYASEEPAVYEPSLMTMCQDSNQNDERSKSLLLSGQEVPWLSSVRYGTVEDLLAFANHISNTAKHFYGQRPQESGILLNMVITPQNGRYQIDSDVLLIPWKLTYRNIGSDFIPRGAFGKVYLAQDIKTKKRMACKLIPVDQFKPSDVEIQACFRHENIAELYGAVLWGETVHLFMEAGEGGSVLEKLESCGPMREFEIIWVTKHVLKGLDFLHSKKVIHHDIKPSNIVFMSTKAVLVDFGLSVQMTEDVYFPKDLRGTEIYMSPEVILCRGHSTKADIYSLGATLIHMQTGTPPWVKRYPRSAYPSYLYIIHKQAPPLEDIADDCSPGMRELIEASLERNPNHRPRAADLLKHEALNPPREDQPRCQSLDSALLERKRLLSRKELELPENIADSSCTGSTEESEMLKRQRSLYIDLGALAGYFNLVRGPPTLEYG

[11] = target: T11, 382 unique human kinases (Homo sapiens, UniProt Q5S007); conditions: LRRK2, [ATP] 30 µM, compound 10 uM; for remaining activity at 10 µM: read-out: % Enzyme Activity (relative to DMSO controls)
T11 construct: purchased Reaction Biology (HotSpot contract assay)
T11 sequence (Q5S007 whole entry): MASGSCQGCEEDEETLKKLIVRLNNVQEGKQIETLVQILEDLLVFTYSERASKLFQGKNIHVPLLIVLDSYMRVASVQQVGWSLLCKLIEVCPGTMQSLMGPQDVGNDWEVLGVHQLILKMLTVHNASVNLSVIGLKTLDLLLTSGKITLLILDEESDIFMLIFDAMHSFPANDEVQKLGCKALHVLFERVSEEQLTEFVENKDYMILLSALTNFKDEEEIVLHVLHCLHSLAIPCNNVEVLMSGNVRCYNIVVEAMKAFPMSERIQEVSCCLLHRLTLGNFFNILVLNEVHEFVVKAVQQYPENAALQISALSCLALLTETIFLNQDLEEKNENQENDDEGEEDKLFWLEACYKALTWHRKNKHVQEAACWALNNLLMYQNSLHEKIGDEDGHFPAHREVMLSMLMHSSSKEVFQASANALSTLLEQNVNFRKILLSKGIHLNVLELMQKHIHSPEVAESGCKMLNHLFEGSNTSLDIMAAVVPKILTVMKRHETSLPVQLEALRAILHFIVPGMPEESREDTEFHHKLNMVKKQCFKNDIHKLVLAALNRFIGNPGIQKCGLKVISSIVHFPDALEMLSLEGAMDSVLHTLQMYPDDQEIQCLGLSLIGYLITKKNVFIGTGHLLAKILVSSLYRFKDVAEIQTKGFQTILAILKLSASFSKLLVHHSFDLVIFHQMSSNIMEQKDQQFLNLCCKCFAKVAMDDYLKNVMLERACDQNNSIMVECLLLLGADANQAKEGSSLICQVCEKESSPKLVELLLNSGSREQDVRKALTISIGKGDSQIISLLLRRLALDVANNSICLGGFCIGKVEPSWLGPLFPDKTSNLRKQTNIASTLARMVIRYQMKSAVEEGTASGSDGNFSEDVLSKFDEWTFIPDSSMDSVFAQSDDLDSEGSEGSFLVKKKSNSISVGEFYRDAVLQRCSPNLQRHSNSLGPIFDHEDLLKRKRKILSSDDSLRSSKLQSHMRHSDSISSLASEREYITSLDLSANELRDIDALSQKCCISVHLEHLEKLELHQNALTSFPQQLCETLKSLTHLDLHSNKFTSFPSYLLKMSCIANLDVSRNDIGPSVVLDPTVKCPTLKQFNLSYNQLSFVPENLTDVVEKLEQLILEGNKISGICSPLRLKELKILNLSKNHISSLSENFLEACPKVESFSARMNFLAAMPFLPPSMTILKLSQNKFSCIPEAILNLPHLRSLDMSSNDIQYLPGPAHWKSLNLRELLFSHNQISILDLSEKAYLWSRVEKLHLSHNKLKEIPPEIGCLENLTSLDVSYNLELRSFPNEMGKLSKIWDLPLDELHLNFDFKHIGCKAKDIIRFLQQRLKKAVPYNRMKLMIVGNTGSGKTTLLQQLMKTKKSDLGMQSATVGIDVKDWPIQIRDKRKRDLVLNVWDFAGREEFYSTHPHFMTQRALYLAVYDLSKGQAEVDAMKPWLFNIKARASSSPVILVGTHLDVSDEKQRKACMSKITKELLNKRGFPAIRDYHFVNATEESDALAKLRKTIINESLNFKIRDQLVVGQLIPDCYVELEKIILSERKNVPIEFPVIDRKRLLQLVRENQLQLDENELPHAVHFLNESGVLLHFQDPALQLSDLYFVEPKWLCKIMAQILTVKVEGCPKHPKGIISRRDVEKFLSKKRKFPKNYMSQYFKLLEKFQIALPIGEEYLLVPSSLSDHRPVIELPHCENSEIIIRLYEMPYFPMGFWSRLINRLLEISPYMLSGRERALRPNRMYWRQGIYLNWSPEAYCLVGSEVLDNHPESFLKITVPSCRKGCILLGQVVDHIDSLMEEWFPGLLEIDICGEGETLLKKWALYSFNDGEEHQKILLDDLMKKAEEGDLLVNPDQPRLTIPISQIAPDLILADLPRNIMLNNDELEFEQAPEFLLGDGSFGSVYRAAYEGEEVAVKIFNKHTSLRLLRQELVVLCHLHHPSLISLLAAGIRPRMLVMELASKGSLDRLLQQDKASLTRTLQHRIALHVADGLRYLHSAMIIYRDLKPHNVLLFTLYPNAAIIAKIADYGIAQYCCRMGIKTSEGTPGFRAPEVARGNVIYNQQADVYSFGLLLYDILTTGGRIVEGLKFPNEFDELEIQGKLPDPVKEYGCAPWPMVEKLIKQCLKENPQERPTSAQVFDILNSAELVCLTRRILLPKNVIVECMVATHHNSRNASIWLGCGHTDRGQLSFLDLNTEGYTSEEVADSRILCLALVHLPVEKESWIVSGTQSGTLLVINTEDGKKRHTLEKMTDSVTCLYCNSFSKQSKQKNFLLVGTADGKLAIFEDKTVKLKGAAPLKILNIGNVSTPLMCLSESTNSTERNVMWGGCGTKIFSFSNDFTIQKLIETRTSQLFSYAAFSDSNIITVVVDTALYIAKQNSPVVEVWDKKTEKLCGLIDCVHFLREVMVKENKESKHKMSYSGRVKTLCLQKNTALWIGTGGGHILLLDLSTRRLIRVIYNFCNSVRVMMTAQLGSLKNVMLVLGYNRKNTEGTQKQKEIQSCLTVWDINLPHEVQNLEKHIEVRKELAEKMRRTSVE

Compound | remaining activity at 10 µM [1] | remaining activity at 10 µM [2] | remaining activity at 10 µM [3] | remaining activity at 10 µM [4] | remaining activity at 10 µM [5] | remaining activity at 10 µM [7] | remaining activity at 10 µM [8] | remaining activity at 10 µM [9] | remaining activity at 10 µM [10] | remaining activity at 10 µM [11] | other results
CC(C)c1cc(-c2n[nH]c(=O)n2-c2ccc3c(ccn3C)c2)c(O)cc1O [Ganetespib (STA9090)] | 68.1% | 86.5% | 90.3% | 74.3% | 65.1% |  |  |  |  |  | 
CC(C)c1cc(-c2n[nH]c(=O)n2-c2ccc3c(ccn3C)c2)c(O)cc1O [Ganetespib] |  |  |  |  |  | 5.88% | 99.7% | 60.7% | 116% | 45.9% | remaining activity at 1 µM ([6]; compound 1 uM, read-out: % Enzyme Activity (relative to DMSO controls)): 18.3%
CCNC(=O)c1noc(-c2cc(C(C)C)c(O)cc2O)c1-c1ccc(CN2CCOCC2)cc1 [Luminespib] |  |  |  |  |  | 5.9% | 99.4% | 102% | 95.4% | 94.8% | % Enzyme Activity (relative to DMSO controls) ([6]; compound 10 uM): 6.22%; remaining activity at 10 µM ([6]; compound 10 uM, read-out: % Enzyme Activity (relative to DMSO controls)): 6.93%; % Enzyme Activity (relative to DMSO controls) [7]: 5.81%; % Enzyme Activity (relative to DMSO controls) [8]: 98.84%; % Enzyme Activity (relative to DMSO controls) [9]: 101.19%; % Enzyme Activity (relative to DMSO controls) [10]: 93.56%; % Enzyme Activity (relative to DMSO controls) [11]: 94.05%
CCNC(=O)c1noc(-c2cc(C(C)C)c(O)cc2O)c1-c1ccc(CN2CCOCC2)cc1 [Luminespib (AUY-922)] | 91.5% | 100% | 95.8% | 94.8% | 102% |  |  |  |  |  | % Enzyme Activity (relative to DMSO controls) [1]: 91.09%; % Enzyme Activity (relative to DMSO controls) [2]: 100.14%; % Enzyme Activity (relative to DMSO controls) [3]: 95.75%; % Enzyme Activity (relative to DMSO controls) [4]: 91.88%; % Enzyme Activity (relative to DMSO controls) [5]: 101.49%
